According to patent publication US10744201B2, “Method for treating rheumatoid arthritis with a human IL-6 receptor antibody and methotrexate” (Chugai Seiyaku Kabushiki Kaisha, priority 2003, dated 2020):

Tests used:
[1] = tested on: patients with active rheumatoid arthritis; assay: Phase II trial: reduction of swollen joint count; format: in vivo, human
Experimental: (§1) The efficacy, safety and tolerability of MRA were assessed.
Reduction of Swollen Joint Count (Table 2)
The mean swollen joint count was similar across all the treatment groups at baseline.

[2] = tested on: patients with active rheumatoid arthritis; assay: Phase II trial of MRA alone and with methotrexate: ACR 20/50/70 improvement rates; format: in vivo, human; details: for ACR 20 / ACR 50 / ACR 70: 16 weeks
Experimental: as §1
Study design: a double-blind, randomized, parallel group study by central randomization method
ACR improvement criteria: The cases where among the following 7 items, the number of swelling joints and the number of pain joints are improved by 20% or more and improvement by 20% or more is observed in three out of the remaining five items are determined as 20% or more improvement in ACR criteria. Further, 50% and 70% improvement cases indicate the patient cases where the above 20% improved parts are improved by 50% and 70%, respectively.
(1) Number of swelling joints
(2) Number of tender joints
(3) Pain assessment by a patient
(4) Global assessment of disease activity by a patient
(5) Global disease activity by a physician
(6) Assessment of physical function by a patient

[3] = tested on: patients with active rheumatoid arthritis; assay: Phase II trial: safety (adverse events, laboratory data, infusion reaction); details: for serious adverse events of which causal relationship could not be denied: hypersensitivity: no combination with MTX, after the 3rd or 4th MRA administration
Experimental: Subjects: Patients with rheumatoid arthritis diagnosed based on the 1987 disease classification of the American College of Rheumatology (ACR), of at least 6 months duration were enrolled.
Dosage and Administration: Seven groups: 0 mg/kg (placebo)+MTX, 2 mg/kg MRA+MTX, 4 mg/kg MRA+MTX, 8 mg/kg MRA+MTX, 2 mg/kg MRA+MTX placebo, 4 mg/kg MRA+MTX placebo, and 8 mg/kg MRA+MTX placebo. MRA or placebo administration is given by intravenous infusion, at 4-week intervals. MTX or MTX placebo administration is given orally, once weekly, at 10-25 mg/week.
Study Method: The assigned dose was administered by intravenous infusion, four times in total at 4-week intervals, and efficacy and safety were evaluated at 2-week intervals up to 16 weeks, and follow-up observation was done at 20 weeks. The primary endpoint for efficacy was the rate of ACR 20 at 16 weeks (4 weeks after the last dose). Secondary endpoints included rates of ACR 50 and ACR 70 at 16 weeks (4 weeks after the last dose).
Among 359 enrolled patients, the safety evaluation sets, the full analysis sets, and PPS (per protocol set) were 359, 354, and 307, respectively.
An infusion reaction was defined as an adverse event occurring within 24 hours of study drug administration.

[4] = tested on: patients with active rheumatoid arthritis; assay: Phase II trial: development of anti-MRA antibodies; format: in vivo, human; details: 8 mg/kg treatment groups
Experimental: as §1
The development of anti-MRA antibodies was examined. None occurred at the 8 mg/kg treatment groups (monotherapy or combination with MTX). At 2 or 4 mg/kg treatment groups, the number of incidents was less in groups in combination with MTX than MRA monotherapy groups.

[5] = 0 mg/kg (placebo)+MTX 10-25 mg/week oral (control group)
[6] = 2 mg/kg MRA i.v. at 4-week intervals x4, with MTX or MTX placebo 10-25 mg/week oral
[7] = 4 mg/kg MRA i.v. at 4-week intervals x4, with MTX or MTX placebo 10-25 mg/week oral
[8] = 8 mg/kg MRA i.v. at 4-week intervals x4, with MTX or MTX placebo 10-25 mg/week oral

CN(Cc1cnc2nc(N)nc(N)c2n1)c1ccc(C(=O)N[C@@H](CCC(=O)O)C(=O)O)cc1 [MTX, methotrexate]
Swollen joint count, Change from Baseline, Mean ± SD ([1]; MTX alone (MRA placebo), Week 16): −5.7 ± 6.1
ACR 20 [2, 5]: 40.8%
ACR 50 [2, 5]: 28.6%
ACR 70 [2, 5]: 16.3%

MRA: recombinant humanised anti-human interleukin-6 receptor monoclonal antibody of the IgG1 sub-class that inhibits the function of IL-6
serious adverse events of which causal relationship could not be denied: hypersensitivity ([3]; 2 mg/kg MRA group): four patients of hypersensitivity
serious adverse events of which causal relationship could not be denied: hypersensitivity ([3]; 4 mg/kg MRA group): one patient of hypersensitivity
Atherogenic Index ([3]; MRA groups): no overall change
laboratory data relating to lipids (total cholesterol, HDL cholesterol and triglyceride) ([3]; MRA groups): increase
number of patients experiencing an infusion reaction (adverse event within 24 hours of study drug administration) ([3]; across treatment groups): possible inverse dose-response
ALT and AST levels (hepatic functions) ([3]; equivalent to elevations observed in other patients with rheumatoid arthritis): elevation
CRP and ESR (parameters for disease activity) ([3]; in a dose dependent manner): decreases of CRP and ESR
hemoglobin (parameter for disease activity) ([3]; in a dose dependent manner): elevation of hemoglobin
neutrophil count ([3]; in some patients): Slight transient decrease
safety ([3]; in vivo): confirmed
Swollen joint count, Change from Baseline, Mean ± SD ([1]; 2 mg/kg MRA, with MTX or MTX placebo, Week 16): −4.5 ± 5.7
Swollen joint count, Change from Baseline, Mean ± SD ([1]; 4 mg/kg MRA, with MTX or MTX placebo, Week 16): −5.8 ± 4.1
Swollen joint count, mean difference (95% CI) to the MTX group ([1]; 8 mg/kg MRA group vs MTX group, Week 16): −2.31 (−4.07, −0.55)
Swollen joint count, Change from Baseline, Mean ± SD ([1]; 8 mg/kg MRA, with MTX or MTX placebo, Week 16): −8.4 ± 4.6
linear dose-relationship of reduction in swollen joint count ([1]; 2, 4, 8 mg/kg MRA groups, monotherapy p<0.001, combination p=0.004): statistically significant linear dose-relationship
ACR 20 [2, 6]: 30.8%
ACR 50 [2, 6]: 5.8%
ACR 70 [2, 6]: 1.9%
ACR 20 [2, 7]: 61.1%
ACR 50 [2, 7]: 27.8%
ACR 70 [2, 7]: 5.6%
ACR 20 [2, 8]: 62.7%
ACR 50 [2, 8]: 41.2%
ACR 70 [2, 8]: 15.7%
dose dependency in ACR 20 improvement rate ([2]; 2, 4, 8 mg/kg MRA alone groups): statistically significant dose dependency
dose dependent response for ACR50 and ACR70 improvement rate ([2]; 2, 4, 8 mg/kg MRA, alone and MTX-combined groups): statistically significant dose dependent response
dose-response (overall result) ([2]; in vivo): clear dose-response
effectiveness to treat patients with rheumatoid arthritis ([2]; in vivo): confirmed
development of anti-MRA antibodies [4]: None
